From US20240148664A1, “LIPID AND COMPOSITION” (SOGO PHARMACEUTICAL CO., LTD., priority 2021, published 2024)

Test system: mice
Experiment: In vivo animal experiment: protein expression level after intramuscular administration of mRNA lipid nanoparticles (IVIS luminescence)
Details: intramuscular left hind leg, 1.25 μg mRNA/mouse, time point of the value not stated
Description: An experiment was carried out in mice in order to evaluate lipid nanoparticles encapsulating an mRNA. By injecting mice with a solution including lipid nanoparticles to transfect the mice and measuring the amount of a predetermined protein produced, the performance of the lipid nanoparticles used can be evaluated. Hereinafter, the procedure of the experiment will be shown.
By using lipids (Ib), (Ik), and (II) of Examples 2, 11, and 12, lipid nanoparticle-containing solutions for the in vivo animal experiment were prepared. […]
50 μL (1.25 μg/mouse, in terms of amount of mRNA) of the solution for administration was intramuscularly administered to the left hind leg of mice. […] 10 Minutes after administration of the luciferin solution, the amount of luminescence at a predetermined time after administration was measured under isoflurane anesthesia with an in vivo imaging system (manufactured by Xenogen, IVIS) to calculate the protein expression level.

Which Protein expression level (PEG-modified lipid (PEG2000-DMG 1.5 mol %) present) does the source give for CCCCCCCC/C=C\CCCCCCCCC(CCCCCCC/C=C\CCCCCCCC)OC(=O)C(CCC(=O)O)NC(=O)C(N)CCCNC(=N)N (centres unmarked) [Example 2, 4-(2-amino-5-guanidinopentanamido)-5-(((9Z,27Z)-hexatriaconta-9,27-dien-18-yl)oxy)-5-oxopentanoic acid] here?
The Protein expression level was 130,000.

What about the Protein expression level (PEG-modified lipid absent) of the same compound?
The Protein expression level was 13,000.
